Our source for the fold change (FC) values is ChEMBL document CHEMBL4813950, “Comparing the efficacy and selectivity of Ck2 inhibitors. A phosphoproteomics approach” (Eur J Med Chem, 2021).

Type in all cases: cell-based
Assay [1] deals with Enhancer of mRNA-decapping protein 4 (Mus musculus) (UniProt Q3UJB9). Kind of assay: Inhibition of Edc4 in mouse C2C12 cells assessed as reduction in phospho-sites occupancy at 4 uM after 5 hrs by SILAC based LC-MS/MS analysis relative to control.
For assay [2], the target named is Importin subunit alpha-4 (Mus musculus) (UniProt O35344). Kind of assay: Inhibition of Kpna3 in mouse C2C12 cells assessed as reduction in phospho-sites occupancy at 4 uM after 5 hrs by SILAC based LC-MS/MS analysis relative to control.
Chain of Importin subunit alpha-4 (Mus musculus) (O35344 whole entry): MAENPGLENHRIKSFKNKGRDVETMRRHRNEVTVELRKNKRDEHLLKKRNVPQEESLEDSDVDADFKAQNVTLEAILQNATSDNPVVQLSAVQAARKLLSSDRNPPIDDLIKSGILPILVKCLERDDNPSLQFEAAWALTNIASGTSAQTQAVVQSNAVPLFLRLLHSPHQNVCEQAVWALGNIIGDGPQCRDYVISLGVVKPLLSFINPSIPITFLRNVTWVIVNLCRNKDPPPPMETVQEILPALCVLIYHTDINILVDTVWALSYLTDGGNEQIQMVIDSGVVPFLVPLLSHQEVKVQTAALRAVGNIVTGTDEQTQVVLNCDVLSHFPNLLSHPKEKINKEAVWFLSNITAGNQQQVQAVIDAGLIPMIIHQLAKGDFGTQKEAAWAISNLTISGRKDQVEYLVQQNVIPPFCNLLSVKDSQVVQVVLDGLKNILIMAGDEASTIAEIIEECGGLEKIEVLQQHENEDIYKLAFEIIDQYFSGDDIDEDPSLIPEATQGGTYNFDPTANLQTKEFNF
Assay [3] concerns the target 182 kDa tankyrase-1-binding protein (Mus musculus) (UniProt P58871). Kind of assay: Inhibition of tankyrase-1-binding protein in mouse C2C12 cells assessed as reduction in phospho-sites occupancy at 4 uM after 5 hrs by SILAC based LC-MS/MS analysis relative to control.
Assay [4] deals with Phosducin-like protein 3 (Mus musculus) (UniProt Q8BVF2). The assay can be described thus: Inhibition of Phosducin-like protein 3 in mouse C2C12 cells assessed as reduction in phospho-sites occupancy at 4 uM after 5 hrs by SILAC based LC-MS/MS analysis relative to control.
Chain of Phosducin-like protein 3 (Mus musculus) (Q8BVF2 whole entry, the tested form may be a part): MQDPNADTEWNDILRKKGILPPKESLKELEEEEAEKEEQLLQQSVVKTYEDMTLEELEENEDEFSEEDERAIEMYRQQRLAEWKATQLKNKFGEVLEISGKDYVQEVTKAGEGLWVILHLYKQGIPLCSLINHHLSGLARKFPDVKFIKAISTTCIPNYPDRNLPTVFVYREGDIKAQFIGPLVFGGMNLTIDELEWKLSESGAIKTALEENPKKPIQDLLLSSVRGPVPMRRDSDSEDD
The target of assay [5] is Zinc finger and BTB domain-containing protein 7A (Mus musculus) (UniProt O88939). Kind of assay: Inhibition of Zbtb7a in mouse C2C12 cells assessed as reduction in phospho-sites occupancy at 4 uM after 5 hrs by SILAC based LC-MS/MS analysis relative to control.
Chain of Zinc finger and BTB domain-containing protein 7A (Mus musculus) (O88939 whole entry, the tested form may be a part): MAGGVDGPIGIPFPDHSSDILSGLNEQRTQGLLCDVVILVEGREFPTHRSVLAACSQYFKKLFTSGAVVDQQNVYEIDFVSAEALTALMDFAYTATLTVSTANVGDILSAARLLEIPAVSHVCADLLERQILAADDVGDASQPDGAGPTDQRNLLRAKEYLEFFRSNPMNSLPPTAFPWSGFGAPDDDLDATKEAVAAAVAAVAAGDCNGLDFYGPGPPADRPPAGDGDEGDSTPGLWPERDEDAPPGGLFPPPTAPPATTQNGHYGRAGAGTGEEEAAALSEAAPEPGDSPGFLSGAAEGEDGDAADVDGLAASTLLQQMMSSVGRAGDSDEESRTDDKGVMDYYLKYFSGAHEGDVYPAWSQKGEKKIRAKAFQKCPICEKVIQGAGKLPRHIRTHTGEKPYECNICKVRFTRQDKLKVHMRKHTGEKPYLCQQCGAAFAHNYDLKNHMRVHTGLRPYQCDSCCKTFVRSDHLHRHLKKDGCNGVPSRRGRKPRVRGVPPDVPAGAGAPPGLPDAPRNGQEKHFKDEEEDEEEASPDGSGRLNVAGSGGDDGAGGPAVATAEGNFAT
The target in assay [6] is Nucleoprotein TPR (Mus musculus) (UniProt F6ZDS4). The assay can be described thus: Inhibition of nucleoprotein TPR in mouse C2C12 cells assessed as reduction in phospho-sites occupancy at 4 uM after 5 hrs by SILAC based LC-MS/MS analysis relative to control.
Chain of Nucleoprotein TPR (Mus musculus) (F6ZDS4 whole entry): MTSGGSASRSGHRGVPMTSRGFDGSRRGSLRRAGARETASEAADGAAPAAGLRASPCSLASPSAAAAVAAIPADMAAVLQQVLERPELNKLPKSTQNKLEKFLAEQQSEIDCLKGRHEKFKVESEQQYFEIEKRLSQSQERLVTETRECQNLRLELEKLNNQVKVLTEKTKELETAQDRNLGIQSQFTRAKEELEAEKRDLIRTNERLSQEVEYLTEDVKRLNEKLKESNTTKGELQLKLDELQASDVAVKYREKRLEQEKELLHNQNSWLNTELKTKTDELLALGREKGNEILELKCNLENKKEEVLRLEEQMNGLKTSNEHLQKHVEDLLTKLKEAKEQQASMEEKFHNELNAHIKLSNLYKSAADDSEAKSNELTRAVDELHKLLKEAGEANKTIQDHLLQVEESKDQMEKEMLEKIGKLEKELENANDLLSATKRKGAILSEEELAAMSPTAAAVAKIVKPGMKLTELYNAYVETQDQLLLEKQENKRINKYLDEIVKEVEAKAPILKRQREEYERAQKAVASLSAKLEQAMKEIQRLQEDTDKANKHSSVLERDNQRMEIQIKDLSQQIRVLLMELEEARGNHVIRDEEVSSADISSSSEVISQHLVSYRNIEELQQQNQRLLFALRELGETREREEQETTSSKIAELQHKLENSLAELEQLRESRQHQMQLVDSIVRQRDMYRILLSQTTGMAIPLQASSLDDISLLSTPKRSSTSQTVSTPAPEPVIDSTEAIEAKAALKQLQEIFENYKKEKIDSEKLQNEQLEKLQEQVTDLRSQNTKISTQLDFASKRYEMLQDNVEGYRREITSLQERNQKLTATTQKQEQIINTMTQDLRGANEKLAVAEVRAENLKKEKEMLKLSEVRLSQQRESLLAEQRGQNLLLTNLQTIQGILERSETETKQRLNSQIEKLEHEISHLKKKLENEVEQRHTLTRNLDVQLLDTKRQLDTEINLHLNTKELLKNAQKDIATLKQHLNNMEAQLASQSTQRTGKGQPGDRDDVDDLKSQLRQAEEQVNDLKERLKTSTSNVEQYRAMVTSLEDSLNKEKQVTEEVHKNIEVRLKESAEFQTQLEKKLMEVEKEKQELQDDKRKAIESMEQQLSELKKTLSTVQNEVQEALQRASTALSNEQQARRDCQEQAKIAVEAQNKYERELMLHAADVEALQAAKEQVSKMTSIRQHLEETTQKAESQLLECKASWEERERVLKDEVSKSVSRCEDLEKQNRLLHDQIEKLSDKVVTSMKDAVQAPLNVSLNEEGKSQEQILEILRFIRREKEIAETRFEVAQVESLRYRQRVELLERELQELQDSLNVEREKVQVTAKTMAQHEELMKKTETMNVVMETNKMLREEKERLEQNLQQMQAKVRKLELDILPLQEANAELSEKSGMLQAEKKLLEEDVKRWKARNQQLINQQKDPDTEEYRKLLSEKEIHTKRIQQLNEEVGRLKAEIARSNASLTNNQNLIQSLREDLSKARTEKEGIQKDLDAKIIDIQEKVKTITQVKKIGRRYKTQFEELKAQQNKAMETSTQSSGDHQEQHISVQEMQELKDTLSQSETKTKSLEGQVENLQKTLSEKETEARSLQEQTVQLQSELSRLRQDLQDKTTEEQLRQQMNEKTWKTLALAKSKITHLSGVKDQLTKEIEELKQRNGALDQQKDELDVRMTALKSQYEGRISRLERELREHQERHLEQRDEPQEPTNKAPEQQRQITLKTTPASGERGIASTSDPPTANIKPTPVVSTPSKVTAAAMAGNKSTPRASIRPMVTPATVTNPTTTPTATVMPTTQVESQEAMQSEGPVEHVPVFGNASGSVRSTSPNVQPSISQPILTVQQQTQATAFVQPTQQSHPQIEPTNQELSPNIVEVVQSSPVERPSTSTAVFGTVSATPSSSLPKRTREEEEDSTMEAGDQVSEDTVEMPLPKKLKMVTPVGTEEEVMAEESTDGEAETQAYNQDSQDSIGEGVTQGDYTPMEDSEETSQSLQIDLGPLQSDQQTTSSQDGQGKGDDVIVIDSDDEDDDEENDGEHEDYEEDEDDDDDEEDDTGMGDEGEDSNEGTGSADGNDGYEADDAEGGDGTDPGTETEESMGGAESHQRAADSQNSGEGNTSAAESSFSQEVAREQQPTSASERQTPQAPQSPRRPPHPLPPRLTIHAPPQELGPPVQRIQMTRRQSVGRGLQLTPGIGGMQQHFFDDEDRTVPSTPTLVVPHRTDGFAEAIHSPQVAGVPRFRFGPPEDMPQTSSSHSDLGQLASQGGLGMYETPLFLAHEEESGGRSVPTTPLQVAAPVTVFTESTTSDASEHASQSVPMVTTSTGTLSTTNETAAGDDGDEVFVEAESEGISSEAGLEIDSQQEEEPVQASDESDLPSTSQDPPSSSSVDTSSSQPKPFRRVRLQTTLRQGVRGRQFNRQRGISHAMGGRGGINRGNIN
The target of assay [7] is WD repeat and HMG-box DNA-binding protein 1 (Mus musculus) (UniProt P59328). Kind of assay: Inhibition of Wdhd1 in mouse C2C12 cells assessed as reduction in phospho-sites occupancy at 4 uM after 5 hrs by SILAC based LC-MS/MS analysis relative to control.
Assay [8] deals with Centrosomal protein of 170 kDa (Mus musculus) (UniProt Q6A065). Kind of assay: Inhibition of Cep170 in mouse C2C12 cells assessed as reduction in phospho-sites occupancy at 4 uM after 5 hrs by SILAC based LC-MS/MS analysis relative to control.
The target in assay [9] is Unconventional myosin-XVIIIa (Mus musculus) (UniProt Q9JMH9). The assay can be described thus: Inhibition of Unconventional myosin-18a in mouse C2C12 cells assessed as reduction in phospho-sites occupancy at 4 uM after 5 hrs by SILAC based LC-MS/MS analysis relative to control.
Assay [10] concerns the target Bcl-2-associated transcription factor 1 (Mus musculus) (UniProt Q8K019). The assay can be described thus: Inhibition of Bcl-2-associated transcription factor 1 in mouse C2C12 cells assessed as reduction in phospho-sites occupancy at 4 uM after 5 hrs by SILAC based LC-MS/MS analysis relative to control.

Molecules are shown by their SMILES.

Chain of Bcl-2-associated transcription factor 1 (Mus musculus) (Q8K019 whole entry): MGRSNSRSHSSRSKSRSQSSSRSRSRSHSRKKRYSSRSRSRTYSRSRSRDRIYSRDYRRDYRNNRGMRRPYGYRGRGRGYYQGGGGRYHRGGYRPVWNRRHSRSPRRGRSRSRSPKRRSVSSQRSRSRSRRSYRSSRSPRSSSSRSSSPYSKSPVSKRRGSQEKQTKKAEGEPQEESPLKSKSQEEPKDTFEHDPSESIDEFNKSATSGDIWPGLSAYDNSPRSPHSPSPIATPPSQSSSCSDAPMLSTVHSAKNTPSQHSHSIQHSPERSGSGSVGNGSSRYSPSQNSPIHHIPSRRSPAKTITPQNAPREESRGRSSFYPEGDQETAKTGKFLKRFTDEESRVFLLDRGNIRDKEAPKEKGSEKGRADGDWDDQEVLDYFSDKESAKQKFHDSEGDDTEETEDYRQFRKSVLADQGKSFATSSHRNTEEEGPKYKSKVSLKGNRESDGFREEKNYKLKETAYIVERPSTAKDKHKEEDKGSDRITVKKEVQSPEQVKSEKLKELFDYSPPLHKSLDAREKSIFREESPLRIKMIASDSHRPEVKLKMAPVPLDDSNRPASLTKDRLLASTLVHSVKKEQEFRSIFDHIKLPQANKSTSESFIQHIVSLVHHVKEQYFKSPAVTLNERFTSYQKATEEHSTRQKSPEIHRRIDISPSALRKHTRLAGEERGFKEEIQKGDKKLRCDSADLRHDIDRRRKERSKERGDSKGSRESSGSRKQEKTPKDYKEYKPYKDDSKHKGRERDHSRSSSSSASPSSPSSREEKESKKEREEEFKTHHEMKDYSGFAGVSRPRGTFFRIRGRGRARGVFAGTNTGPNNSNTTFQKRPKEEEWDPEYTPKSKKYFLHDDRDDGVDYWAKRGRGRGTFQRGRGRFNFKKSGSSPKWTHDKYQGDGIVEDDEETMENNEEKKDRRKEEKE

`COc1cc(/C=N/n2c(SC)nnc2-c2ccccc2)c(Br)cc1O`: the fold change (FC) in assay [1] came out at 2.17; in [2], 3.44; in assay [3] it was 3.06; in assay [4], 4.01; in assay [5] it was 1.89; in assay [6], 1.51. Besides, the fold change (FC) in [7] stood at 1.66; in [8], 1.86; in assay [9], 5.23; in [10], 1.58.
